Test results reported in PMC7686313, “Phase 1 study of mTORC1/2 inhibitor sapanisertib (TAK-228) in advanced solid tumours, with an expansion phase in renal, endometrial or bladder cancer” (British Journal of Cancer, 2020).

Columns and labels:
[1] = tested on: refractory clear-cell RCC; set-up: method as in earlier work; conditions: single-agent 30 mg QW; cited from earlier work
[2] = tested on: endometrial cancer; assay: Tumour response according to RECIST v1.1, expansion phase, endometrial cancer; assay type: in vivo, human; conditions: expansion Endometrial cancer (n = 18)
Description: (§1) Patients could be considered for enrolment in one of three disease-specific cohorts: (1) advanced or recurrent endometrial adenocarcinoma with disease progression following ≥1 prior chemotherapy regimen; (2) advanced/metastatic urothelial cancer (carcinoma of the bladder, ureter and/or renal pelvis), progressive after ≥1 prior therapy in the metastatic/unresectable setting; (3) advanced RCC after failure of ≥1 prior antivascular endothelial growth factor therapy with no prior TORC1 inhibitor therapy, or progressed on treatment with TORC1 inhibitor therapy.

[3] = Dose escalation: dose-limiting toxicities and maximum tolerated dose; assay type: in vivo
Description: This Phase 1, open-label, dose-escalation and expansion study aimed to determine the safety, tolerability and preliminary efficacy of sapanisertib in patients with advanced solid tumours. During dose-escalation, patients received one of four sapanisertib dosing schedules: once daily (QD), once weekly (QW; days 1, 8, 15 and 22), QD for 3 days on/4 days off each week (QD × 3dQW; days 1–3, 8–10, 15–17 and 22–24) and QD for 5 days on/2 days off each week (QD × 5dQW; days 1–5, 8–12, 15–19 and 22–26) in a 28-day cycle with dose escalation based on a modified Fibonacci schema.
The maximum tolerated dose (MTD) was to be determined in the QD schedule before enrolment of initial single-patient cohorts for the QW and QDx3d QW schedules. […] Subsequent dose cohorts for that schedule included 3–6 patients. […] Once the MTD was identified for each of the dosing schedules, an additional six patients were enrolled to obtain further PK and safety data prior to expansion.

[4] = tested on: renal cell carcinoma (RCC); assay: Tumour response according to RECIST v1.1, expansion phase, RCC; assay type: in vivo, human
Description: as §1

[5] = expansion RCC TORC1 failure (n = 23)
[6] = expansion RCC TORC1 naïve (n = 18)

Question: Which Responses [1] does the source give for CC(C)n1nc(-c2ccc3oc(N)nc3c2)c2c(N)ncnc21 [Sapanisertib] here?
Answer: no responses

Question: And the “Best overall response CR” value [2]?
Answer: 0 n (%)

Question: And the “Best overall response PD” value [2]?
Answer: 8 (44) n (%)

Question: What about the “Best overall response PR” value [2] of the same molecule?
Answer: 1 (6) n (%)

Question: What about the “Best overall response SD < 6 months” value [2] of the same molecule?
Answer: 8 (44) n (%)

Question: And the “Best overall response SD ≥ 6 months” value [2]?
Answer: 0 n (%)

Question: And the “CBR (CR + PR + SD ≥ 6 months)” value [2]?
Answer: 1 (6) n (%)

Question: And the “ORR (CR + PR)” value [2]?
Answer: 1 (6) n (%)

Question: And the “Recommended Phase 2 dose” value ([3]; QD)?
Answer: 5 mg

Question: And the DLTs ([3]; QD 4 mg)?
Answer: Grade 3 hyperglycaemia

Question: And the DLTs ([3]; QD 6 mg)?
Answer: Grade 3 maculo-papular rash; grade 3 diarrhoea; grade 3 asthenia; grade 5 ventricular fibrillation/cardiac arrest

Question: And the DLTs ([3]; QD 7 mg)?
Answer: Grade 3 hyperglycaemia and grade 4 anaemia; grade 3 maculo-papular rash

Question: What about the “Maximum tolerated dose (MTD)” value ([3]; QD schedule) of the same molecule?
Answer: 6 mg

Question: And the DLTs ([3]; QD × 3dQW 9 mg)?
Answer: Grade 3 hypophosphatemia

Question: What about the DLTs ([3]; QD × 3dQW 12 mg) of the same molecule?
Answer: Grade 3 stomatitis and grade 3 dehydration; grade 3 asthenia

Question: And the DLTs ([3]; QD × 3dQW 16 mg)?
Answer: Grade 3 stomatitis

Question: What about the DLTs ([3]; QD × 3dQW 20 mg) of the same molecule?
Answer: Grade 3 stomatitis; grade 3 stomatitis

Question: And the “Maximum tolerated dose (MTD)” value ([3]; QD × 3dQW schedule)?
Answer: 9 mg

Question: What about the DLTs ([3]; QD × 5dQW 13 mg) of the same molecule?
Answer: Grade 3 fatigue; grade 3 asthenia; grade 3 stomatitis

Question: What about the “Maximum tolerated dose (MTD)” value ([3]; QD × 5dQW schedule) of the same molecule?
Answer: 7 mg

Question: What about the “Recommended Phase 2 dose” value ([3]; QW) of the same molecule?
Answer: 30 mg

Question: And the DLTs ([3]; QW 40 mg)?
Answer: Grade 3 dry mouth and fatigue; grade 3 asthenia

Question: And the “Maximum tolerated dose (MTD)” value ([3]; QW schedule)?
Answer: 40 mg

Question: What about the “Best overall response CR” value [4, 5] of the same molecule?
Answer: 0 n (%)

Question: And the “Best overall response PD” value [4, 5]?
Answer: 7 (30) n (%)

Question: And the “Best overall response PR” value [4, 5]?
Answer: 2 (9) n (%)

Question: And the “Best overall response SD < 6 months” value [4, 5]?
Answer: 9 (39) n (%)

Question: What about the “Best overall response SD ≥ 6 months” value [4, 5] of the same molecule?
Answer: 5 (22) n (%)

Question: And the “CBR (CR + PR + SD ≥ 6 months)” value [4, 5]?
Answer: 7 (30) n (%)

Question: What about the “ORR (CR + PR)” value [4, 5] of the same molecule?
Answer: 2 (9) n (%)

Question: What about the “Best overall response CR” value [4, 6] of the same molecule?
Answer: 1 (6) n (%)

Question: What about the “Best overall response PD” value [4, 6] of the same molecule?
Answer: 5 (28) n (%)

Question: And the “Best overall response PR” value [4, 6]?
Answer: 3 (17) n (%)

Question: And the “Best overall response SD < 6 months” value [4, 6]?
Answer: 7 (39) n (%)

Question: What about the “Best overall response SD ≥ 6 months” value [4, 6] of the same molecule?
Answer: 1 (6) n (%)

Question: What about the “CBR (CR + PR + SD ≥ 6 months)” value [4, 6] of the same molecule?
Answer: 5 (28) n (%)

Question: And the “ORR (CR + PR)” value [4, 6]?
Answer: 4 (22) n (%)

Question: And the “Objective responses persisting for > 16 months” value ([4]; expansion phase)?
Answer: Four of the seven

Question: And the “Duration of complete response (CR)” value ([4]; expansion, one patient with TORC1 inhibitor−naïve RCC receiving 40 mg QW)?
Answer: 16 months
